Tested on: SEM cells
Assay: cell viability relative to DMSO control; higher = less cytotoxic
Conditions: 48 h
How it was run: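 NOMO1, SEM and P12-Ichikawa leukemia cells spent at least four passages adapting to each medium before use. They were seeded at 500 cells/well (NOMO1, SEM) or 1000 cells/well (P12-Ichikawa) in 5 μl in 1536-well plates and pin-dosed with library compounds in DMSO at 11 threefold steps from 47 μM down to 0.79 nM. After 48 h at 37°C, CellTiter-Glo One luminescence was read. Viability is reported as a percentage of the DMSO wells on each plate, with cell-free wells as background.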

[1] = HPLM + 10% dialyzed FBS, 0.000781 µM
[2] = HPLM + 10% dialyzed FBS, 0.00234 µM
[3] = HPLM + 10% dialyzed FBS, 0.00702 µM
[4] = HPLM + 10% dialyzed FBS, 0.0211 µM
[5] = HPLM + 10% dialyzed FBS, 0.0632 µM
[6] = HPLM + 10% dialyzed FBS, 0.19 µM
[7] = HPLM + 10% dialyzed FBS, 0.569 µM
[8] = HPLM + 10% dialyzed FBS, 1.71 µM
[9] = HPLM + 10% dialyzed FBS, 5.12 µM
[10] = HPLM + 10% dialyzed FBS, 15.4 µM
[11] = HPLM + 10% dialyzed FBS, 46.1 µM
[12] = RPMI 5 mM glucose + 10% FBS, 0.000781 µM
[13] = RPMI 5 mM glucose + 10% FBS, 0.00234 µM
[14] = RPMI 5 mM glucose + 10% FBS, 0.00702 µM
[15] = RPMI 5 mM glucose + 10% FBS, 0.0211 µM
[16] = RPMI 5 mM glucose + 10% FBS, 0.0632 µM
[17] = RPMI 5 mM glucose + 10% FBS, 0.19 µM
[18] = RPMI 5 mM glucose + 10% FBS, 0.569 µM
[19] = RPMI 5 mM glucose + 10% FBS, 1.71 µM
[20] = RPMI 5 mM glucose + 10% FBS, 5.12 µM
[21] = RPMI 5 mM glucose + 10% FBS, 15.4 µM
[22] = RPMI 5 mM glucose + 10% FBS, 46.1 µM
[23] = RPMI 5 mM glucose + 10% dialyzed FBS, 0.000781 µM
[24] = RPMI 5 mM glucose + 10% dialyzed FBS, 0.00234 µM
[25] = RPMI 5 mM glucose + 10% dialyzed FBS, 0.00702 µM
[26] = RPMI 5 mM glucose + 10% dialyzed FBS, 0.0211 µM
[27] = RPMI 5 mM glucose + 10% dialyzed FBS, 0.0632 µM
[28] = RPMI 5 mM glucose + 10% dialyzed FBS, 0.19 µM
[29] = RPMI 5 mM glucose + 10% dialyzed FBS, 0.569 µM
[30] = RPMI 5 mM glucose + 10% dialyzed FBS, 1.71 µM
[31] = RPMI 5 mM glucose + 10% dialyzed FBS, 5.12 µM
[32] = RPMI 5 mM glucose + 10% dialyzed FBS, 15.4 µM
[33] = RPMI 5 mM glucose + 10% dialyzed FBS, 46.1 µM

Compound | cell viability [1] [%] | cell viability [2] [%] | cell viability [3] [%] | cell viability [4] [%] | cell viability [5] [%] | cell viability [6] [%] | cell viability [7] [%] | cell viability [8] [%] | cell viability [9] [%] | cell viability [10] [%] | cell viability [11] [%] | cell viability [12] [%] | cell viability [13] [%] | cell viability [14] [%] | cell viability [15] [%] | cell viability [16] [%] | cell viability [17] [%] | cell viability [18] [%] | cell viability [19] [%] | cell viability [20] [%] | cell viability [21] [%] | cell viability [22] [%] | cell viability [23] [%] | cell viability [24] [%] | cell viability [25] [%] | cell viability [26] [%] | cell viability [27] [%] | cell viability [28] [%] | cell viability [29] [%] | cell viability [30] [%] | cell viability [31] [%] | cell viability [32] [%] | cell viability [33] [%]
CC[C@H](NC1=C2N=C[NH]C2=NC=N1)C/3=N/C4=C(C(=CC=C4)F)C(=O)N3C5=CC=CC=C5 | 94.9 | 118 | 133 | 120 | 114 | 97.2 | 87.4 | 106 | 81.7 | 73.6 | 52.1 | 79.2 | 94.8 | 112 | 105 | 111 | 108 | 88.2 | 88.9 | 84.5 | 57.6 | 53.1 | 90.2 | 110 | 132 | 120 | 116 | 84.2 | 116 | 110 | 92.8 | 80.1 | 57.3
N[S+]([O-])(=O)C1=C(Cl)C=C2\N=C/N[S+]([O-])(=O)C2=C1 | 91.1 | 96.5 | 111 | 99 | 91.2 | 59.6 | 123 | 105 | 114 | 148 | 122 | 101 | 104 | 94.3 | 78.1 | 92.5 | 45.3 | 122 | 119 | 104 | 107 | 123 | 109 | 98.7 | 103 | 80.2 | 101 | 56.3 | 134 | 109 | 109 | 123 | 133
CC[C@]12CC[C@H]3[C@@H](CCC/4=C/C(=O)CC[C@H]34)[C@@H]1\C=C/[C@@]2(O)C#C | 78.9 | 96.1 | 106 | 102 | 111 | 108 | 115 | 109 | 127 | 110 | 121 | 110 | 107 | 119 | 123 | 131 | 117 | 106 | 124 | 116 | 125 | 116 | 113 | 110 | 108 | 115 | 116 | 120 | 109 | 118 | 115 | 118 | 118
Cc1c(C)n(Cc2ccc(-c3ccccc3C(=O)O)cc2)c2ccc(C(=O)N[C@@H](C)c3ccc([N+](=O)[O-])cc3)cc12 | 106 | 101 | 117 | 105 | 107 | 105 | 116 | 110 | 108 | 109 | 119 | 109 | 109 | 115 | 112 | 118 | 119 | 118 | 124 | 120 | 121 | 110 | 99.2 | 117 | 115 | 112 | 116 | 127 | 120 | 117 | 115 | 115 | 106
CNCC(O)c1ccc(O)cc1 (stereo unspecified) | 59.8 | 87.8 | 85.6 | 80.2 | 90.1 | 95.6 | 87.9 | 86.8 | 95.3 | 99.5 | 93.6 | 96.6 | 95.4 | 128 | 103 | 112 | 105 | 113 | 104 | 122 | 114 | 111 | 75.6 | 97.3 | 85.7 | 93.5 | 101 | 108 | 100 | 99.4 | 114 | 99.8 | 87.1
O=C(Nc1cccc(C(F)(F)F)c1)Nc1cc([S+](=O)([O-])NC2CC2)ccc1-c1ccsc1 | 101 | 108 | 117 | 97.1 | 110 | 118 | 109 | 102 | 113 | 106 | 61.9 |  |  |  |  |  |  |  |  |  |  |  | 101 | 107 | 118 | 105 | 107 | 111 | 104 | 83.4 | 94.9 | 101 | 10.3
O=C(Nc1cc(Cl)cc2c1[nH]c1cnccc12)c1cccnc1 | 121 | 121 | 116 | 134 | 124 | 122 | 118 | 141 | 133 | 127 | 113 | 109 | 108 | 96.3 | 117 | 126 | 125 | 128 | 129 | 138 | 121 | 124 | 113 | 107 | 109 | 108 | 100 | 98.5 | 116 | 125 | 123 | 128 | 117
O=C(O)Cn1nnc(-c2cc(N3CCC(Oc4cc(F)ccc4Br)CC3)no2)n1 | 73.8 | 82.5 | 92.6 | 75.8 | 95.6 | 101 | 104 | 102 | 86.3 | 97.2 | 62.2 | 102 | 75.3 | 101 | 94.2 | 98 | 100 | 96.9 | 120 | 90.9 | 103 | 85.4 | 80.1 | 88.9 | 95.6 | 106 | 93.6 | 102 | 116 | 106 | 94 | 102 | 103
CC1=C(C)C(=O)C(C(CCCCCC(=O)O)c2ccccc2)=C(C)C1=O (stereo unspecified) | 63.6 | 70.7 | 56.2 | 69.2 | 65.6 | 78.1 | 71.6 | 64.6 | 59.7 | 44.7 | 41 | 77.4 | 92 | 73.4 | 79.9 | 75.1 | 77.4 | 59 | 57.3 | 35.1 | 26.7 | 31.9 | 54.8 | 74.5 | 57.1 | 69.9 | 75.2 | 97.2 | 58.6 | 76.6 | 46.5 | 48.6 | 24.9
CC(C)c1noc(N2CCC(COc3ccc(-c4ccc([S+](C)(=O)[O-])cc4)nc3)CC2)n1 | 131 | 81.5 | 115 | 122 | 132 | 32.7 | 128 | 84.8 | 16.3 | 122 | 109 | 111 | 73.4 | 140 | 126 | 134 | 23.1 | 120 | 53.1 | 12.9 | 114 | 112 | 111 | 56 | 136 | 138 | 115 | 28.8 | 111 | 60.4 | 10.3 | 100 | 104
O=C1c2ccccc2-[n+]2ccc3c([nH]c4ccccc43)c21 | 91 | 89.3 | 102 | 77.2 | 70.7 | 73.6 | 68 | 55.8 | 19.6 | 3.74 | 2.58 | 116 | 109 | 102 | 92.1 | 78.2 | 92.7 | 85.7 | 59.6 | 32.3 | 3.62 | 2.81 | 92.7 | 98 | 91.9 | 80.2 | 87.4 | 84.9 | 65.4 | 58.1 | 32.6 | 3.56 | 2.5
O=C(C=CC#Cc1cccc(N[S+](=O)([O-])c2ccccc2)c1)NO | 119 | 103 | 113 | 119 | 122 | 109 | 107 | 87 | 13.1 | 4.27 | 4.02 | 112 | 80.6 | 103 | 111 | 109 | 89.3 | 101 | 84.4 | 10.9 | 4.75 | 4.28 | 105 | 94.8 | 102 | 100 | 120 | 117 | 115 | 80.2 | 7.4 | 5.47 | 5.05
FC1=C(C=C(C\C2=N\NC(=O)C3=C2C=CC=C3)C=C1)C(=O)N4CCN(CC4)C(=O)C5CC5 | 80.9 | 84 | 100 | 99 | 97 | 94.9 | 85.7 | 91.6 | 86.5 | 19.7 | 41.1 | 94.7 | 95.8 | 103 | 109 | 107 | 105 | 92.8 | 87.1 | 76.3 | 13.1 | 26.5 | 71.6 | 79 | 92 | 70.5 | 77.7 | 81.3 | 74.8 | 78.2 | 62.4 | 17.5 | 24.8
NC\1=N\C(=O)N(\C=C1)[C@@H]2O[C@H](CO)[C@@H](O)[C@@H]2O | 23.7 | 26.1 | 17.2 | 15.7 | 13.3 | 11 | 10.9 | 8.22 | 7.91 | 7.2 | 3.82 | 37.4 | 37.7 | 23.5 | 21.1 | 11.4 | 12.1 | 10.4 | 8.65 | 7.25 | 6.17 | 1.99 | 16.3 | 15.2 | 14.2 | 8.59 | 7.4 | 7.91 | 6.93 | 4.74 | 3.6 | 3.65 | 1.52

From the supplement of paper PMC11451515
